Data reported in patent publication US7785828B1 (priority 2003, dated 2010).

System: Fusarium graminearum
Assay type: cell-based
Parameters: key: + indicates a 1- to 5-fold improvement in activity compared to a reference defensin protein; ++ indicates a >5- to 10-fold improvement; +++ indicates a >10-fold improvement; “0” indicates no activity detected
Settings: not given

Substance | Activity (1): antifungal activity of the NP against Fusarium graminearium
QKLCERPSGTWSGVCMNSNACKNQCIRLEGARHGSCNYVFPAHKCICYFPC (Defensin like) [L2-53] | 0

Same assay, conditions: Table 2B (Dm-AMP1 based libraries); improvement compared to reference defensin protein (Rs-AFP2 for Table 2B [sic])

Substance | Activity (1): antifungal activity of the NP against Fusarium graminearium
NLCERASKTWTGNCGNTKHCDTQCRSWEGAKHGACHVRNGKHKCFCYFNC (Defensin like) [L6-42] | + (+ indicates a 1- to 5-fold improvement in activity compared to a reference defensin protein)
NLCERASKTWTGNCGNTKHCDTQCKNWEGAKHGACHVRNGKWKCFCYFNC (Defensin like) [L6-77] | ++ (++ indicates a >5- to 10-fold improvement)
NLCERASKTWTGNCGNTKHCDTQCRSWEGAKHGACHVRSGKHKCFCYFNC (Defensin like) [L5-32] | + (+ indicates a 1- to 5-fold improvement in activity compared to a reference defensin protein)
NLCERASKTWTGNCGNTKHCDNQCRNWEGAKHGACHVRNGKWKCFCYFNC (Defensin like) [L6-07] | +++ (+++ indicates a >10-fold improvement)
NLCERASKTWTGNCGNTKHCDNQCRNWEGAKHGACHVRSGKWKCFCYFNC (Defensin like) [L10-79] | ++ (++ indicates a >5- to 10-fold improvement)
NLCERASKTWSGDCGNTKHCDNQCRNWEGAKHGACHKRNGKWKCFCYFNC (Defensin like) [L10-62] | ++ (++ indicates a >5- to 10-fold improvement)
NLCERASLTWTGNCGNTKHCDTQCKNWEGAKHGACHVRNGKWKCFCYFNC (Defensin like) [L3-02] | ++ (++ indicates a >5- to 10-fold improvement)
ELCERASLTWTGNCGNTKHCDTQCKSWEGAKHGACHKRSGKWKCFCYFNC (Defensin like) [L3-96] | + (+ indicates a 1- to 5-fold improvement in activity compared to a reference defensin protein)
NLCERASKTWTGNCGNTKHCDTQCKSWEGAKHGACHVRSGKHKCFCYFNC (Defensin like) [L5-36] | + (+ indicates a 1- to 5-fold improvement in activity compared to a reference defensin protein)
NLCERASKTWTGNCGNTKHCDTQCKSWEGAKHGACHVRNGKWKCFCYFNC (Defensin like) [L6-52] | + (+ indicates a 1- to 5-fold improvement in activity compared to a reference defensin protein)
NLCERASKTWTGNCGNTKHCDTQCRSWEGAKHGACHVRNGKWKCFCYFNC (Defensin like) [L6-62] | + (+ indicates a 1- to 5-fold improvement in activity compared to a reference defensin protein)
NLCERASKTWTGNCGNTKHCDNQCRNWESAAHGACHKRSGKWKCFCYFNC (Defensin like) [L3-98] | ++ (++ indicates a >5- to 10-fold improvement)
NLCERASKTWTGNCGNTKHCDNQCKNWEGAKHGACHVRNGKHKCFCYFNC (Defensin like) [L6-08] | +++ (+++ indicates a >10-fold improvement)
NLCERASKTWTGNCGNTKHCDNQCKSWEGAKHGACHKRNGKWKCFCYFNC (Defensin like) [L10-51] | ++ (++ indicates a >5- to 10-fold improvement)
NLCERASKTWTGNCGNTKHCDNQCRNWEGAKHGACHKRNGKWKCFCYFNC (Defensin like) [L9-12] | +++ (+++ indicates a >10-fold improvement)
NLCERASKTWTGNCGNTKHCDNQCKSWEGAKHGACHVRNGKWKCFCYFNC (Defensin like) [L10-64] | ++ (++ indicates a >5- to 10-fold improvement)
NLCERASKTWTGNCGNTKHCDNQCKSWEGAKHGACHVRSGKHKCFCYFNC (Defensin like) [L5-37] | ++ (++ indicates a >5- to 10-fold improvement)
NLCERASKTWSSNCGNTKHCDTQCKNWEGAKHGACHVRNGKWKCFCYFNC (Defensin like) [L10-60] | ++ (++ indicates a >5- to 10-fold improvement)
NLCERASKTWTGNCGNTKHCDNQCRNWEGAKHGACHVRNGKHKCFCYFNC (Defensin like) [L6-35] | ++ (++ indicates a >5- to 10-fold improvement)
NLCERASKTWTGNCGNTKHCDTQCRNWEGAKHGACHVRNGKWKCFCYFNC (Defensin like) [L5-46] | + (+ indicates a 1- to 5-fold improvement in activity compared to a reference defensin protein)
NLCERASKTWTGNCGNTKHCDTQCKSWEGAKHGACHKRSGKWKCFCYFNC (Defensin like) [L5-21] | + (+ indicates a 1- to 5-fold improvement in activity compared to a reference defensin protein)
NLCERASKTWTGNCGNTKHCDNQCKNWEGAKHGACHVRNGKWKCFCYFNC (Defensin like) [L6-03] | +++ (+++ indicates a >10-fold improvement)
NLCERASKTWTGNCGNTKHCDNQCRNWEGAKHGACHVRSGKHKCFCYFNC (Defensin like) [L6-20] | ++ (++ indicates a >5- to 10-fold improvement)
NLWEKASLTWTGNCGNTKHCDNQCKNWESAAHGACHKRSGKWMCFCYFNC (Defensin like) [L4-1] | + (+ indicates a 1- to 5-fold improvement in activity compared to a reference defensin protein)
NLCERASKTWTGNCGNTKHCDNQCKSWEGAKHGACHKRSGKWKCFCYFNC (Defensin like) [L9-04] | ++ (++ indicates a >5- to 10-fold improvement)
NLCERASKTWTGNCGNTKHCDTKCRSWESAKHGACHKRNGKWKCFCYFNC (Defensin like) [L3-46] | ++ (++ indicates a >5- to 10-fold improvement)
ELCERASKTWTGNCGNTKHCDNQCRSWESAAHGACHKRSGKWKCFCYFNC (Defensin like) [L3-87] | ++ (++ indicates a >5- to 10-fold improvement)
NLCERASKTWTGNCGNTKHCDTQCRSWEGAKHGACHKRNGKWKCFCYFNC (Defensin like) [L10-14] | ++ (++ indicates a >5- to 10-fold improvement)
NLCERASKTWTGNCGNTKHCDNQCRNWEGAAHGACHKRNGKWKCFCYFNC (Defensin like) [L6-45] | ++ (++ indicates a >5- to 10-fold improvement)

Same assay, conditions: Table 2C (mixed diversity library); improvement compared to reference defensin protein DmAMP

Substance | Activity (1): antifungal activity of the NP against Fusarium graminearium
--QKLCEKASKTWTGNCGNTKHCDKQCRSWEKAKHGACHVRNGKWKCFCYFNC (Defensin like) [L7-59] | ++ (++ indicates a >5- to 10-fold improvement)
--QKLCERPSQTWTGHCGNTKHCDTQCKSWEGAKHGACHKRNGKWKCFCYFNC (Defensin like) [L7-44] | + (+ indicates a 1- to 5-fold improvement in activity compared to a reference defensin protein)
---NLCERPSKTWTGHCGNTKHCDKQCKSWEGAKHGACHVRSGKWKCFCYFNC (Defensin like) [L7-26] | ++ (++ indicates a >5- to 10-fold improvement)
--QKLCERPSQTWTGHCGNTKHCDKQCKNWEGAKHGACHVRNGKWKCFCYFNC (Defensin like) [L7-89] | + (+ indicates a 1- to 5-fold improvement in activity compared to a reference defensin protein)
DGVKLCERPSQTWSGNCGNTKHCDKQCRNWEKAKHGACHKRNGKWKCFCYFNC (Defensin like) [L7-123] | + (+ indicates a 1- to 5-fold improvement in activity compared to a reference defensin protein)
DGVKLCEKPSQTWSHCGNTKHCDNQCKNWEGAAHGACHKRSGKWKCFCYFNC (Defensin like) [L7-231] | ++ (++ indicates a >5- to 10-fold improvement)
DGVKLCERASQTWTGHCGNTKHCDKQCKSWEKAKHGACHVRNGKWKCFCYFNC (Defensin like) [L7-15] | ++ (++ indicates a >5- to 10-fold improvement)
DGVKLCEKASQTWTGNCGNTKHCDNQCKNWEKAKHGACHKRSGKWKCFCYFNC (Defensin like) [L7-42] | + (+ indicates a 1- to 5-fold improvement in activity compared to a reference defensin protein)
DGVKLCERASKTWSGHCGNTKHCDKQCKNWEKAKHGACHKRSGKWKCFCYFNC (Defensin like) [L7-219] | + (+ indicates a 1- to 5-fold improvement in activity compared to a reference defensin protein)
DGVKLCERASKTWTGNCGNTKHCDKQCKNWEGAKHGACHKRNGKWKCFCYFNC (Defensin like) [L7-107] | + (+ indicates a 1- to 5-fold improvement in activity compared to a reference defensin protein)
DGVKLCERASKTWTGHCGNTKHCDKQCKNWEKAAHGACHVRNGKWKCFCYFNC (DGVKLCERASKTWSGHCGNTKHCDKQCKNWEKAAHGACHVRNGKWKCFCYFSC; Defensin like) [L7-93] | +++ (+++ indicates a >10-fold improvement)
DGVKLCEKPSQTWTGHCGNTKHCDKQCKNWEGAKHGACHKRNGKWKCFCYFNC (Defensin like) [L7-178] | ++ (++ indicates a >5- to 10-fold improvement)
DGVKLCERPSQTWTGHCGNTKHCDKQCRNWEGAAHGACHKRSGKWKCFCYFNC (Defensin like) [L7-83] | ++ (++ indicates a >5- to 10-fold improvement)
DGVKLCEKPSQTWTGNCGNTKHCDKQCRNWEKAKHGACHKRNGKWKCFCYFNC (Defensin like) [L7-46] | + (+ indicates a 1- to 5-fold improvement in activity compared to a reference defensin protein)
--QKLCEKASQTWTGHCGNTKHCDNQCRNWEKAAHGACHVRNGKWKCFCYFNC (Defensin like) [L7-19] | + (+ indicates a 1- to 5-fold improvement in activity compared to a reference defensin protein)
